These results are taken from US20230357269A1 (LES LABORATOIRES SERVIER, priority 2020, published 2023).

SMILES strings stand for the structures.

One data set deals with human recombinant LRRK2 protein (Homo sapiens (Human), UniProt Q5S007). Briefly: LRRK2 Kinase Activity Assay (ADP-Glo). Type of data set: biochemical. Conditions: LRRK2 wt; LRRKtide peptide and ATP substrates; 1h-incubation at 37° C. An outline of the steps: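 Recombinant human LRRK2 acted on LRRKtide peptide and ATP for 1 h at 37 °C. ADP formed was detected by ADP-Glo luminescence (ATP depletion, then ADP-to-ATP conversion and luciferase). IC50s came from curve fits over 10 concentrations (N=2).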
Chain of human recombinant LRRK2 protein (Q5S007 whole entry): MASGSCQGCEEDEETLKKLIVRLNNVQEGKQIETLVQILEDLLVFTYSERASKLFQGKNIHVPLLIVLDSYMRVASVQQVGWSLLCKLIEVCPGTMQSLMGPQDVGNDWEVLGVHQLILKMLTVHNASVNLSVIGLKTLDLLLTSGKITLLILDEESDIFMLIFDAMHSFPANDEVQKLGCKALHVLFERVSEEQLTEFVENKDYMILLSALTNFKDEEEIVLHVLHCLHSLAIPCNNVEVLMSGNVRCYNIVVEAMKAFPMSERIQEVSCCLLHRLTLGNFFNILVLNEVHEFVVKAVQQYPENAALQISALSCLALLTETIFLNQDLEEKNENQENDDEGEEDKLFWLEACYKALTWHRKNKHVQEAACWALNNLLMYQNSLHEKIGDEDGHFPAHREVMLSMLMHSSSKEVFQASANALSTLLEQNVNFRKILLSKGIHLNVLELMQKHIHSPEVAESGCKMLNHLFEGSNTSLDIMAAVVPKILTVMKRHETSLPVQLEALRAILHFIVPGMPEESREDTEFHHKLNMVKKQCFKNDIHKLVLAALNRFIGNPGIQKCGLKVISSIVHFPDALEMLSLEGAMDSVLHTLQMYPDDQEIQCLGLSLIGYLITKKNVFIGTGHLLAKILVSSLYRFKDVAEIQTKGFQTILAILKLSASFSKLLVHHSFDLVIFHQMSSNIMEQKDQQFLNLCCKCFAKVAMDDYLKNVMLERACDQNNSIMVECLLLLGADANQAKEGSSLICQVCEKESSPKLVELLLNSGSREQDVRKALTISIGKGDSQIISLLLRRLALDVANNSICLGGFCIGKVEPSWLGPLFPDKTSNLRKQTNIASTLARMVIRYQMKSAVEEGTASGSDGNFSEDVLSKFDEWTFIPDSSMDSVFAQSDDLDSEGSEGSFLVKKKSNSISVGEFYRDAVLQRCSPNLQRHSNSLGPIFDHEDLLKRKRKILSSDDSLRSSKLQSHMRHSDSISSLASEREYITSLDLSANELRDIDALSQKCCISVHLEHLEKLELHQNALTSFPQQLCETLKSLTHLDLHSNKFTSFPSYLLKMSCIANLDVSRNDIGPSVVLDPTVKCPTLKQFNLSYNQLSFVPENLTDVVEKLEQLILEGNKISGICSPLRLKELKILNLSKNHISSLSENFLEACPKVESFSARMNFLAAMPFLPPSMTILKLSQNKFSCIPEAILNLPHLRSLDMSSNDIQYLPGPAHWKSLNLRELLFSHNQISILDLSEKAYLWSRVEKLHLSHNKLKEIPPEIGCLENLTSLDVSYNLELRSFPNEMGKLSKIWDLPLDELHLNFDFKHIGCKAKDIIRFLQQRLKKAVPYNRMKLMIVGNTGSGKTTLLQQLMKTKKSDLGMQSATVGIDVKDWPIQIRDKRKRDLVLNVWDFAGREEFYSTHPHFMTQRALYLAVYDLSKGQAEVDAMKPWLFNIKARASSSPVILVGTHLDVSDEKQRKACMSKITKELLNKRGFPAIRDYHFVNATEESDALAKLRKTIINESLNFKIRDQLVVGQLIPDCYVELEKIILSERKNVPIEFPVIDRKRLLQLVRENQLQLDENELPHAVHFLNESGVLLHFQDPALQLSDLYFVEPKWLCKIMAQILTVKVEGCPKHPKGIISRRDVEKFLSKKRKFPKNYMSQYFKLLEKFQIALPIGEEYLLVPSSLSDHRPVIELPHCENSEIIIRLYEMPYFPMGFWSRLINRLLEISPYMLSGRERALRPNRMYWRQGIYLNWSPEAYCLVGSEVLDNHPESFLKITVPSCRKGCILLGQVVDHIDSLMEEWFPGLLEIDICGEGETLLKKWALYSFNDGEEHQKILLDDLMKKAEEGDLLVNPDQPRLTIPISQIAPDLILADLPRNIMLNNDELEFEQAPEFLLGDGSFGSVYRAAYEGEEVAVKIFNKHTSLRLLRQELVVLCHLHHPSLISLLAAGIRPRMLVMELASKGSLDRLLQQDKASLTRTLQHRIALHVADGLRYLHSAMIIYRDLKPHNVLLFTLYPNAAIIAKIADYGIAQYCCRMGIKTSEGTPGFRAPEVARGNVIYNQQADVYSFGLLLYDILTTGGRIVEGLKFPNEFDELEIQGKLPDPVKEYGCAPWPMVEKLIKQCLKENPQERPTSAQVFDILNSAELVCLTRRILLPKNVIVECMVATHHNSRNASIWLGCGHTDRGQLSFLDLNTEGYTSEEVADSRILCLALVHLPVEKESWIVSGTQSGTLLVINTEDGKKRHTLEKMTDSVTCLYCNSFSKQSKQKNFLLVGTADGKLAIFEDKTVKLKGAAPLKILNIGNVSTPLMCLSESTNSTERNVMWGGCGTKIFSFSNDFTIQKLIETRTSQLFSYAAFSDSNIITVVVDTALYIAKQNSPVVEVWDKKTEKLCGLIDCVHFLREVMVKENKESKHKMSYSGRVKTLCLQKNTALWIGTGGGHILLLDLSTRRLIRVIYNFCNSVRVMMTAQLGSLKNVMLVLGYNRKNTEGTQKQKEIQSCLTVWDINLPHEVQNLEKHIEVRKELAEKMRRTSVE
Turning to `O=C1NCCCOc2ccc3[nH]nc(c3c2)-c2cnn(n2)CCO1` [Example 166, 8,14-dioxa-4,5,10,19,20,23-hexaazatetracyclo[13.5.2.1^2,5.0^18,21]tricosa-1(20),2(23),3,15(22),16,18(21)-hexaen-9-one], the IC50 was below 10 nM.

As to `O=C1NCC(F)(F)COc2ccc3[nH]nc(c3c2)-c2cnn(n2)CCO1` [Example 167, 12,12-difluoro-8,14-dioxa-4,5,10,19,20,23-hexaazatetracyclo[13.5.2.1^2,5.0^18,21]tricosa-1(20),2(23),3,15(22),16,18(21)-hexaen-9-one], the IC50 was below 10 nM.

As to `O=C1NC[C@@H](F)COc2ccc3[nH]nc(c3c2)-c2cccc(c2)CO1` [Example 168, (12R)-12-fluoro-8,14-dioxa-10,19,20-triazatetracyclo[13.5.2.1^2,6.0^8211]tricosa-1(20),2(23),3,5,15(22),16,18(21)-heptaen-9-one], the IC50 is below 10 nM.

As for `O=C1NC[C@H](F)COc2ccc3[nH]nc(c3c2)-c2cccc(c2)CO1` [Example 169, (12S)-12-fluoro-8,14-dioxa-10,19,20-triazatetracyclo[13.5.2.1^2,6.0^18,21]tricosa-1(20),2(23),3,5,15(22),16,18(21)-heptaen-9-one], the IC50 is below 10 nM.

In the case of `O=C1NCC(F)(F)COc2ccc3[nH]nc(c3c2)-c2cncc(n2)CO1` [Example 170, 12,12-difluoro-8,14-dioxa-4,10,19,20,23-pentaazatetracyclo[13.5.2.1^2,6.0^18,21]tricosa-1(20),2(23),3,5,15(22),16,18(21)-heptaen-9-one], the IC50 is below 10 nM.

As to `O=C1NC[C@H](F)COc2ccc3[nH]nc(c3c2)-c2cncc(n2)CO1` [Example 171, (12S)-12-fluoro-8,14-dioxa-4,10,19,20,23-pentaazatetracyclo[13.5.2.1^2,6.0^18,21]tricosa-1(20),2(23),3,5,15,17,21-heptaen-9-one], the IC50 was below 10 nM.

Regarding `O=C1NC[C@@H](F)COc2ccc3[nH]nc(c3c2)-c2cncc(n2)CO1` [Example 172, (12R)-12-fluoro-8,14-dioxa-4,10,19,20,23-pentaazatetracyclo[13.5.2.1^2,6.0^18,21]tricosa-1(20),2(23),3,5,15,17,21-heptaen-9-one], the IC50 is below 10 nM.

Turning to `O=C1NC[C@H](F)COc2ccc3[nH]nc(c3c2)-c2cnn(n2)CCO1` [Example 173, (12S)-12-fluoro-8,14-dioxa-4,5,10,19,20,23-hexaazatetracyclo[13.5.2.1^2,5.0^18,21]tricosa-1(20),2(23),3,15,17,21-hexaen-9-one], the IC50 was below 10 nM.

Turning to `O=C1NC[C@@H](F)COc2ccc3[nH]nc(c3c2)-c2cnn(n2)CCO1` [Example 174, (12R)-12-fluoro-8,14-dioxa-4,5,10,19,20,23-hexaazatetracyclo[13.5.2.1^2,5.0^18,21]tricosa-1(20),2(23),3,15,17,21-hexaen-9-one], the IC50 is below 10 nM.

Take `O=C1NCCC2(CC2)Oc2ccc3[nH]nc(c3c2)-c2cccc(c2)CO1` [Example 175, 8′,14′-dioxa-10′,19′,20′-triazaspiro[cyclopropane-1,13′-tetracyclo[13.5.2.1^2,6.0^18,21]tricosane]-1′(20′),2′(23′),3′,5′,15′(22′),16′,18′(21′)-heptaen-9′-one]: the IC50 is below 10 nM.

Tested on in a further data set: not given
Test: not given
The settings on record: from COCC(CCOc1ccc2c(c1)c(-c1cccc(CO)c1)nn2C1CCCCO1)NC(=O)OCc1ccccc1; other bond; cesium carbonate; acetonitrile; 4.47 mM; 90.0 °C; 6.0 h.
Turning to `COCC1CCOc2ccc3c(c2)c(nn3C2CCCCO2)-c2cccc(c2)COC(=O)N1` (stereo not drawn), the ring closure, yield of all isomers was determined as 62.3%.

The same data set, now with this note: from O=C(NCCCOc1ccc2c(c1)c(-c1cc(Br)cc(CO)c1)nn2C1CCCCO1)OCc1ccccc1; other bond; NaH; toluene; 1.6 mM; 140.0 °C; 42.0 h.
As to `O=C1NCCCOc2ccc3c(c2)c(nn3C2CCCCO2)-c2cc(Br)cc(c2)CO1` (stereo not drawn), the ring closure, yield of all isomers was 25.7%.
